Measurements: patent publication US12338256B2, “Aza-tetracyclic oxazepine compounds and uses thereof” (Genentech, Inc., priority 2022, dated 2025)
Where two headings read alike, the source gives them in different places.

Columns and labels:
[1] = tested on: H1975 (KRAS wild type human lung adenocarcinoma cell line); assay: KRAS 3D-Cell Proliferation Assay, H1975 (Example 503); format: cell-based; conditions: H1975 3D culture, 7 days, CellTiter-Glo 3D, read-out: Prolif H1975 3D ATP IC50
Description: (§1) Example 503: KRAS 3D-Cell Proliferation Assays. Cellular potencies of compounds are assessed by evaluating inhibition of proliferation in 3D cultures of homozygous mutant KRAS G12D human pancreatic cell lines (AsPC-1 and HPAC) as compared to a KRAS wild type human lung adenocarcinoma cell line (PC-9 and/or H1975). Cells are seeded into 384-well black round-bottom, ultra-low attachment assay plates in 50 uL cell growth medium (RPMI-1640 with 10% fetal bovine serum and 2 mM L-glutamine). After overnight incubation at 37° C. and 5% CO2, compounds solubilized in DMSO are added as dilution series to the wells in a total volume of 150 nL (0.3% DMSO final). The cells are incubated for 7 days at 37° C. and 5% CO2. Cell proliferation is quantitated by addition of 40 uL/well of CellTiter-GloÒ 3D (Promega), and the well contents are mixed 20× at high speed using liquid handling automation workstation (Bravo with 384-well head) and centrifuged at 1500 rpm for 2 minutes to eliminate bubbles. This reagent in combination with mechanical disruption releases the cellular ATP to promote activity in a luciferase-based enzyme/substrate chemiluminescent detection system. After a 30-minute incubation under ambient conditions with shaking and an additional 10 minutes without shaking, the luminescence is read on a plate reader (e.g., EnVision [PerkinElmer]). The results are normalized to percent inhibition based on the following control samples: DMSO (0% inhibition) and 1 μM staurosporine (100% inhibition). The normalized luminescence results are plotted against compound concentration, and the data are fit to a 4-parameter Hill equation to determine the IC50 values.

[2] = tested on: HPAC (homozygous mutant KRAS G12D human pancreatic cell line); assay: KRAS 3D-Cell Proliferation Assay, HPAC (Example 503); format: cell-based; conditions: HPAC 3D culture, 7 days, CellTiter-Glo 3D, read-out: Prolif HPAC 3D ATP IC50
Description: as §1

For `Cc1c(F)c(N)cc(-c2nc3c4c(nc(OCCCN5C[C@H]6C[C@@H]5CO6)nc4c2F)N2C[C@H]4CC[C@H](N4)[C@H]2[C@H](C)O3)c1C(F)(F)F` [Compound 163, 5-((5S,5aS,6S,9R)-12-(3-((1R,4R)-2-Oxa-5-azabicyclo[2.2.1]heptan-5-yl)propoxy)-1-fluoro-5-methyl-5a,6,7,8,9,10-hexahydro-5H-4-oxa-3,10a,11,13,14-pentaaza-6,9-methanonaphtho[1,8-ab]heptalen-2-yl)-2-fluoro-3-methyl-4-(trifluoromethyl)aniline], the IC50 ([1]; Homo sapiens, NCI-H1975, 168 h) was 1140 nM and the IC50 ([2]; Homo sapiens, HPAC, 168 h) was 10.2 nM.
`CCc1cccc2nc(N)cc(-c3nc4c5c(nc(OC[C@@]67CCCN6C[C@H](F)C7)nc5c3F)N3C[C@H]5CC[C@H](N5)[C@H]3[C@H](C)O4)c12` [Compound 179, 5-Ethyl-4-((5S,5aS,6S,9R)-1-fluoro-12-(((2R,7aS)-2-fluorotetrahydro-1H-pyrrolizin-7a(5H)-yl)methoxy)-5-methyl-5a,6,7,8,9,10-hexahydro-5H-4-oxa-3,10a,11,13,14-pentaaza-6,9-methanonaphtho[1,8-ab]heptalene-2-yl)quinolin-2-amine] was tested, and the IC50 ([1]; Homo sapiens, NCI-H1975, 168 h) was 8410 nM and the IC50 ([2]; Homo sapiens, HPAC, 168 h) was 294 nM.
Compound `Cc1nc(N)cc(-c2nc3c4c(nc(OCC5(CN6CCC7(CCCO7)C6)CC5)nc4c2F)N2C[C@H]4CC[C@H](N4)[C@H]2[C@H](C)O3)c1C(F)(F)F` (stereo partly drawn) [Compound 287, 4-((5S,5aS,6S,9R)-12-((1-((1-oxa-7-azaspiro[4.4]nonan-7-yl)methyl)cyclopropyl)methoxy)-1-fluoro-5-methyl-5a,6,7,8,9,10-hexahydro-5H-4-oxa-3,10a,11,13,14-pentaaza[6,9]methanonaphtho[1,8-ab]heptalene-2-yl)-6-methyl-5-(trifluoromethyl)pyridin-2-amine] has an IC50 ([1]; Homo sapiens, NCI-H1975, 168 h) of 1380 nM and an IC50 ([2]; Homo sapiens, HPAC, 168 h) of 5.72 nM.
`Cc1c(F)c(N)c(F)c(-c2nc3c4c(nc(OC[C@@H]5C[C@@H](F)CN5C)nc4c2F)N2C[C@H]4CC[C@H](N4)[C@H]2[C@H](C)O3)c1C(F)(F)F` [Compound 228, 2,6-Difluoro-3-((5S,5aS,6S,9R)-1-fluoro-12-(((2S,4R)-4-fluoro-1-methylpyrrolidin-2-yl)methoxy)-5-methyl-5a,6,7,8,9,10-hexahydro-5H-4-oxa-3,10a,11,13,14-pentaaza-6,9-methanonaphtho[1,8-ab]heptalen-2-yl)-5-methyl-4-(trifluoromethyl)aniline] gave an IC50 ([1]; Homo sapiens, NCI-H1975, 168 h) of 20000 nM and an IC50 ([2]; Homo sapiens, HPAC, 168 h) of 2000 nM.
For `Cc1nc(N)cc(-c2nc3c4c(nc(OCC56CCCN5CC(F)C6)nc4c2F)N2CC4CCC(N4)[C@H]2[C@@H](C(F)(F)F)O3)c1C(F)(F)F` (stereo in doubt) [Compound 243, 4-((6R,9S)-1-fluoro-12-(((2S,7aR)-2-fluorotetrahydro-1H-pyrrolizin-7a(5H)-yl)methoxy)-5-(trifluoromethyl)-5a,6,7,8,9,10-hexahydro-5H-4-oxa-3,10a,11,13,14-pentaaza-6,9-methanonaphtho[1,8-ab]heptalene-2-yl)-6-methyl-5-(trifluoromethyl)pyridin-2-amine], the IC50 ([1]; Homo sapiens, NCI-H1975, 168 h) was 20000 nM and the IC50 ([2]; Homo sapiens, HPAC, 168 h) was 2000 nM.
Compound `COC1(C)CN(CC2(COc3nc4c5c(nc(-c6cc(N)nc(C)c6C(F)(F)F)c(F)c5n3)O[C@@H](C)[C@@H]3[C@@H]5CC[C@H](CN43)N5)CC2)C1` [Compound 273, 4-((5S,5aS,6S,9R)-1-fluoro-12-((1-((3-methoxy-3-methylazetidin-1-yl)methyl)cyclopropyl)methoxy)-5-methyl-5a,6,7,8,9,10-hexahydro-5H-4-oxa-3,10a,11,13,14-pentaaza-6,9-methanonaphtho[1,8-ab]heptalene-2-yl)-6-methyl-5-(trifluoromethyl)pyridin-2-amine] has an IC50 ([1]; Homo sapiens, NCI-H1975, 168 h) of 3190 nM and an IC50 ([2]; Homo sapiens, HPAC, 168 h) of 6.53 nM.
In the case of `Cc1c(F)c(N)cc(-c2nc3c4c(nc(OC[C@@H]5CC[C@@H]6CC(C(=O)N(C)C)CCN65)nc4c2F)N2C[C@H]4CC[C@H](N4)[C@H]2[C@H](C)O3)c1C(F)(F)F` (single isomer, unassigned) [133 (isomer 3)], the IC50 ([1]; Homo sapiens, NCI-H1975, 168 h) is reported as 659 nM and the IC50 ([2]; Homo sapiens, HPAC, 168 h) is reported as 36.3 nM.
For `C[C@@H]1Oc2nc(-c3cc(N)ccc3C(F)(F)F)c(F)c3nc(OC[C@@]45CCCN4C[C@H](F)C5)nc(c23)N2C[C@H]3CC[C@H](N3)[C@@H]12` [Compound 72, 3-((5S,5aS,6S,9R)-1-Fluoro-12-(((2R,7aS)-2-fluorotetrahydro-1H-pyrrolizin-7a(5H)-yl)methoxy)-5-methyl-5a,6,7,8,9,10-hexahydro-5H-4-oxa-3,10a,11,13,14-pentaaza-6,9-methanonaphtho[1,8-ab]heptalen-2-yl)-4-(trifluoromethyl)aniline], the IC50 ([1]; Homo sapiens, NCI-H1975, 168 h) was 1060 nM and the IC50 ([2]; Homo sapiens, HPAC, 168 h) was 3.16 nM.
In the case of `Cc1nc(N)cc(-c2nc3c4c(nc(OCC5(CN6CC7(CCCO7)C6)CC5)nc4c2F)N2C[C@H]4CC[C@H](N4)[C@H]2[C@H](C)O3)c1C(F)(F)F` [Compound 281, 4-((5S,5aS,6S,9R)-12-((1-((5-oxa-2-azaspiro[3.4]octan-2-yl)methyl)cyclopropyl)methoxy)-1-fluoro-5-methyl-5a,6,7,8,9,10-hexahydro-5H-4-oxa-3,10a,11,13,14-pentaaza[6,9]methanonaphtho[1,8-ab]heptalene-2-yl)-6-methyl-5-(trifluoromethyl)pyridin-2-amine], the IC50 ([1]; Homo sapiens, NCI-H1975, 168 h) is reported as 2430 nM and the IC50 ([2]; Homo sapiens, HPAC, 168 h) is reported as 8.6 nM.
`CO[C@@H]1CN(CC2(COc3nc4c5c(nc(-c6cc(N)nc(C)c6C(F)(F)F)c(F)c5n3)O[C@@H](C)[C@@H]3[C@@H]5CC[C@H](CN43)N5)CC2)C[C@@H]1F` [Compound 290, 4-((5S,5aS,6S,9R)-1-fluoro-12-((1-(((3S,4R)-3-fluoro-4-methoxypyrrolidin-1-yl)methyl)cyclopropyl)methoxy)-5-methyl-5a,6,7,8,9,10-hexahydro-5H-4-oxa-3,10a,11,13,14-pentaaza-6,9-methanonaphtho[1,8-ab]heptalen-2-yl)-6-methyl-5-(trifluoromethyl)pyridin-2-amine] showed an IC50 ([1]; Homo sapiens, NCI-H1975, 168 h) of 2780 nM and an IC50 ([2]; Homo sapiens, HPAC, 168 h) of 2.53 nM.
`Cc1cc(N)c(F)c(-c2nc3c4c(nc(OC[C@@H]5CC[C@H]6COCCN65)nc4c2F)N2C[C@H]4CC[C@H](N4)[C@H]2[C@H](C)O3)c1C=C(F)F` [Compound 99, 4-(2,2-Difluorovinyl)-2-fluoro-3-((5S,5aS,6S,9R)-1-fluoro-12-(((6S,8aS)-hexahydro-1H-pyrrolo[2,1-c][1,4]oxazin-6-yl)methoxy)-5-methyl-5a,6,7,8,9,10-hexahydro-5H-4-oxa-3,10a,11,13,14-pentaaza-6,9-methanonaphtho[1,8-ab]heptalen-2-yl)-5-methylaniline] showed an IC50 ([1]; Homo sapiens, NCI-H1975, 168 h) of 5060 nM and an IC50 ([2]; Homo sapiens, HPAC, 168 h) of 40 nM.
Work on `Cc1nc(N)cc(-c2nc3c4c(nc(OCC5(CN6CC7CCC6CO7)CC5)nc4c2F)N2C[C@H]4CC[C@H](N4)[C@H]2[C@H](C)O3)c1C(F)(F)F` [Compound 211, 4-((5S,5aS,6S,9R)-12-((1-((2-Oxa-5-azabicyclo[2.2.2]octan-5-yl)methyl)cyclopropyl)methoxy)-1-fluoro-5-methyl-5°,6,7,8,9,10-hexahydro-5H-4-oxa-3,10°,11,13,14-pentaaza-6,9-methanonaphtho[1,8-ab]heptalen-2-yl)-6-methyl-5-(trifluoromethyl)pyridin-2-amine] yielded an IC50 ([1]; Homo sapiens, NCI-H1975, 168 h) of 1150 nM and an IC50 ([2]; Homo sapiens, HPAC, 168 h) of 1.45 nM.
Compound `Cc1c(F)c(N)cc(-c2nc3c4c(nc(OC[C@]5(CN6CCOCC6)CC5(F)F)nc4c2F)N2C[C@H]4CC[C@H](N4)[C@H]2[C@H](C)O3)c1C(F)(F)F` [167 a] has an IC50 [1] of 1140 nM and an IC50 [2] of 1.58 nM.
For `Cc1c(F)c(N)cc(-c2nc3c4c(nc(OC[C@H](F)CN5CC6(COC6)C5)nc4c2F)N2C[C@H]4CC[C@H](N4)[C@H]2[C@H](C)O3)c1C(F)(F)F` [Compound 144], the IC50 ([1]; Homo sapiens, NCI-H1975, 168 h) was 7510 nM and the IC50 ([2]; Homo sapiens, HPAC, 168 h) was 21.2 nM.
`Cc1nc(N)cc(-c2nc3c4c(nc(OCC5(CN6CC[C@@H](F)C6)CC5)nc4c2F)N2C[C@H]4CC[C@H](N4)[C@H]2[C@H](C)O3)c1C(F)(F)F` [Compound 284, 4-((5S,5aS,6S,9R)-1-fluoro-12-((1-(((R)-3-fluoropyrrolidin-1-yl)methyl)cyclopropyl)methoxy)-5-methyl-5a,6,7,8,9,10-hexahydro-5H-4-oxa-3,10a,11,13,14-pentaaza-6,9-methanonaphtho[1,8-ab]heptalen-2-yl)-6-methyl-5-(trifluoromethyl)pyridin-2-amine] gave an IC50 ([1]; Homo sapiens, NCI-H1975, 168 h) of 490 nM and an IC50 ([2]; Homo sapiens, HPAC, 168 h) of 1.23 nM.
For `Cc1cc(N)cc(-c2nc3c4c(nc(OC[C@@H]5CC[C@H]6COCCN65)nc4c2F)N2C[C@H]4CC[C@H](N4)[C@H]2[C@H](C)O3)c1C(F)(F)F` [Compound 67, 3-((5S,5aS,6S,9R)-1-Fuoro-1-(((6S,8aS)-hexahydro-1H-pyrrolo[2,1-c][1,4]oxazin-6-yl)methoxy)-5-methyl-5a,6,7,8,9,10-hexahydro-5H-4-oxa-3,10a,11,13,14-pentaaza-6,9-methanonaphtho[1,8-ab]heptalen-2-yl)-5-methyl-4-(trifluoromethyl)aniline], the IC50 ([1]; Homo sapiens, NCI-H1975, 168 h) was 639 nM and the IC50 ([2]; Homo sapiens, HPAC, 168 h) was 2.79 nM.
